For one compound, half-life and GI50 results are on record in patent publication US12466818B2, “Thienyl-aniline compounds for treatment of dermal disorders” (NFlection Therapeutics, Inc., priority 2018, dated 2025).

The nature of data set [1]: Assay 6: liver microsomes half-life stability assay. Type of data set: in vitro ADME. As to conditions: pH 7.4; human liver microsomes, 1 μM test compound, NADPH. On the procedure: Metabolic stability of testing compound can be evaluated using human liver microsomes to predict intrinsic clearance. Human liver microsomes are obtained from Corning Gentest.
The assay was carried out in 96-well microtiter plates at 37° C. Reaction mixtures (25 μL) contain a final concentration of 1 μM test compound, 0.5 mg/mL liver microsomes protein, and 1 mM NADPH in buffer (100 mM potassium phosphate, pH 7.4 buffer with 3 mM MgCl2). At each of the time points (0, 15, 30, and 60 minutes), 150 μL of quench solution (100% acetonitrile with 0.1% formic acid) with internal standard was transferred to each well. Verapamil was included as a positive control to verify assay performance. Plates were sealed and centrifuged at 4° C. for 15 minutes at 4000 rpm. The supernatant was transferred to fresh plates for LC/MS/MS analysis.
All samples were analyzed on LC/MS/MS using an AB Sciex API 4000 instrument, coupled to a Shimadzu LC-20AD LC Pump system. […]
The extent of metabolism was calculated as the disappearance of the test compound, compared to the 0-min time incubation. Initial rates were calculated for the compound concentration and used to determine t1/2 values and subsequently, the intrinsic clearance, CLint=(0.693)(1/t1/2 (min))(g of liver/kg of body weight)(mL incubation/mg of microsomal protein)(45 mg of microsomal protein/g of liver weight). […]

Another data set has as its system A375 cells. The data set is described as follows: Assay 2: A375 (BRAF) GI50 cell-based assay (Cell Titer-Glo). As to conditions: Homo sapiens, A-375, 72 hours. Here is the method:
Alternatively, the following procedure can be used to measure cell-based activity. Test compounds were dissolved in DMSO in 10 mM stock. Cell Titer-Glo® 2.0 Luminescent cell viability assay reagent was purchased from Promega (Madison, WI). A375 and HCT116 cell lines were purchased from American Type Culture Collection (Manassas, VA). For A375 cells, cell culture media was DMEM+10% FBS. For HCT116 cells, cell culture media was McCoy's 5A+10% FBS. All media were supplemented with 100 μg/mL of penicillin, and 100 μg/mL of streptomycin. Cultures were maintained at 37° C. in a humidified atmosphere of 5% CO2 and 95% air.
Test compounds were diluted in DMSO solution with 10-dose and 3-fold dilutions in a source plate starting at 10 mM. 25 nL of each test compound was delivered from the source plate to each well of the 384-well cell culture plates (T=Final) by Echo 550. 25 μL of culture medium containing 2000 of A375 or HCT116 cells was added to each of the wells in duplicates of the cell culture plates (T=0 and T=Final). 25 μL of Cell Titer Glo 2.0 reagent was added to each well of cell culture plate (T=0). The contents were mixed on an orbital shaker for 2 min and incubated at room temperature for 15 min to stabilize luminescent signal. Luminescence was recorded by Envision 2104 Multilabel Reader (PerkinElmer, Santa Clara, CA). The number of viable cells in culture was determined based on quantitation of the ATP present in each culture well. The cells in cell culture plate (T=Final) were incubated with the compounds at 37° C., 5% CO2 for 72 hours. 25 μL of Cell Titer Glo 2.0 reagent was added to each well. The contents were mixed on an orbital shaker for 2 min and incubated at room temperature for 15 min to stabilize luminescent signal. Luminescence was recorded by Envision 2104 Multilabel Reader (PerkinElmer, Santa Clara, CA). The number of viable cells in culture was determined based on quantitation of the ATP present in each culture well. The GI50 curves were plotted using the GraphPad Prism 4 program based on a sigmoidal dose-response equation Y=Bottom+(Top-Bottom)/(1+10^((Log EC50−X)*HillSlope)). All parameters in the equation were calculated by GraphPad Prism 4 program. […] Accordingly, GI50 is the value of 10^X, where X was calculated by the Curve Fitting Equation when Y=50 using Excel.
Assay 2 is the A375 (BRAF) GI50 (nM) cell-based assay as described in Example 39. A2 indicates an IC50 of less than or equal to 1 μM, and B2 indicates an IC50 of greater than 1 μM and less than or equal to 2 μM.
A general note: In ATP-based viability assays light output follows the ATP content of the culture.

For the compound `O=C1CCCc2c1sc(Nc1ccc(I)cc1F)c2C(=O)NOCCO` [Compound 1.029, 2-((2-Fluoro-4-iodophenyl)amino)-N-(2-hydroxyethoxy)-7-oxo-4,5,6,7-tetrahydrobenzo[b]thiophene-3-carboxamide], the half-life (usually the time in which the quantity being followed falls by half) at 1 μM in data set [1] was not above 50 min. Besides, the 50% growth inhibitory concentration (GI50) (in general, the concentration giving 50% growth inhibition) in the data set on A375 cells is not above 1000 nM.
